Test results reported in patent publication US4742069A, “Sulfonamide containing dihydropyridine derivatives, intermediates and medicinal use” (Hoffmann-La Roche Inc., priority 1984, dated 1988).

What was measured:
[1] = test system: narcotized dog; test: Hemodynamic parameters in the narcotized dog; format: in vivo
Description: C. Hemodynamic parameters in the narcotized dog:
The 4 most important measurement parameters (with respective measurement units) of the hemodynamic experiment are: (1) CBF: Coronary Blood Flow (in ml/min)--the velocity of blood flow through the coronary arteries; (2) HR: heart rate (in beats/min)--the heart frequency; (3) BP: blood pressure (in mm Hg); and (4) dp/dt: rate of increase in left ventricular pressure (in mm Hg/sec) as a measurement of the contractility force of the heart. The values are given as the % maximum variation from the initial value (Δ%) and the duration in minutes of this variation (t) per dosage administered.
There is thus obtained not only an overall picture of the activity of the substance, but also an estimation as to the potential selectivity for a specific part of the circulatory system in the entire organism. After the administration of an anesthetic, the dog is intubated and respired artificially. Blood pH, pCO2, pO2 and hemoglobin are measured hourly with a blood-gas analyzer. The blood pressure (systolic and diastolic) is measured with a probe in the aorta abdominalis. The heart frequency is recorded by means of a tachometer, which is disengaged from the pressure pulse. For the other measurements the heart must first be opened in order that a probe can be inserted in the left ventricle (heart chamber) for the pressure measurements (dp/dt). The coronary blood flow is measured with a flowing probe in the left coronary artery (descendens).
This allows the prediction that they are useful as agents in the control or prevention of angina pectoris, ischemia, high blood pressure and migraine.

[2] = test system: ^3 H-nifedipine (or ^3 H-nitrendipine) binding, rabbit or guinea pig heart membranes; test: 3H-Nifedipine binding determinations; settings: for A: % max. inhib. (maximum inhibition of specific binding): reference compound nifedipine established as 100%
Method: A. ^3 H-Nifedipine binding determinations:
The determination is carried out on homogenates or on partially-cleaned membranes of rabbit or guinea pig heart. The reaction mixture (0.3 ml) consists of 0.2-0.8 mg of membrane protein, 1 nM of ^3 H-nifedipine (or 0.25 nM of ^3 H-nitrendipine) and various concentrations of the test substances. The incubation lasts 30 minutes at 25° C. or 37° C. and is stopped by dilution with the incubation buffer; a filtration is subsequently carried out. The filter-bound radioactivity is measured with a scintillation counter. Specific binding (i.e. receptor-bound) is defined as the difference between total and unspecific-bound radioactivity. The unspecific binding is determined in the presence of an excess of non-radioactive nifedipine (1 μM).
The activity (potency) of a compound in this test is defined by the IC50 and % maximum inhibition values (% max. inhibition). The IC50 is the substance concentration (in mol/l) which produces a half-maximum inhibition of the specific ^3 H-nifedipine (or ^3 H-nitrendipine) binding. In the table compound A has an IC50 in mol/l, of 3.0.10^-8 which means 3.0×10^-8. The maximum inhibition of the specific binding is given by the % maximum inhibition value; this value is established as 100% for the reference compound nifedipine. Both parameters are extrapolated from a concentration-binding curve.

[3] = test system: KCl contracture of coronary artery strips of dogs (tension-dependent calcium channel); test: Coronary artery strips of dogs, relaxation of KCl contracture; format: cell-based, dog; settings: Canis lupus familiaris; KCl 84.7 mM, 37° C.; read-out: B: IC50 (half-maximum relaxation of KCl contracture)
Method: B. Coronary artery strips of dogs:
In this experiment spiral strips (2-2.5 mm wide and 10 mm long) of coronary arteries of dogs are cut and hung up in an organ chamber under an initial tension of 1.5 g. These strips are pre-incubated for a duration of about 1 to 2 hours in Krebs-Henseleit buffer solution which is gassed with Oxycarbon (a mixture of 95% oxygen and 5% carbon dioxide) at 37° C. The relaxing activity of one of these substances is subsequently tested on a KCl (84.7 mM) contracture by the addition of increasing concentrations of the test substance to the organ chamber. The calcium channel-blocking activity of the test substances can therefore be established, as the KCl contracture occurs exclusively by means of calcium flow through the tension-dependent calcium channel.
The activity of a test substance in this test is given by the IC50 value. This value is defined as the substance concentration (in mol/l) which produces a half-maximum relaxation of a KCl contracture. This value is also extrapolated from the resulting concentration-activity curve.

A: % max. inhib. (maximum inhibition of specific binding) [2] [%]	IC50 [3] [nM]	IC50 ([2]; read-out: IC50 (half-maximum inhibition of specific 3H-nifedipine binding), as repeated in the text) [nM]	Structure (SMILES)	BP blood pressure, duration of variation (t) ([1]; 0.1 mg/kg p.o.) [min]	BP blood pressure, maximum variation from initial value (Δ%) ([1]; 0.1 mg/kg p.o.) [%]	CBF coronary blood flow, duration of variation (t) ([1]; 0.1 mg/kg p.o.) [min]	CBF coronary blood flow, maximum variation from initial value (Δ%) ([1]; 0.1 mg/kg p.o.) [%]	HR heart rate, duration of variation (t) ([1]; 0.1 mg/kg p.o.) [min]	HR heart rate, maximum variation from initial value (Δ%) ([1]; 0.1 mg/kg p.o.)	dp/dt rate of increase in left ventricular pressure, maximum variation from initial value (Δ%) ([1]; 0.1 mg/kg p.o.) [%]	dp/dt, duration of variation (t) ([1]; 0.1 mg/kg p.o.) [min]	BP blood pressure, duration of variation (t) ([1]; 0.03 mg/kg p.o.) [min]	BP blood pressure, maximum variation from initial value (Δ%) ([1]; 0.03 mg/kg p.o.) [%]	CBF coronary blood flow, duration of variation (t) ([1]; 0.03 mg/kg p.o.) [min]	CBF coronary blood flow, maximum variation from initial value (Δ%) ([1]; 0.03 mg/kg p.o.) [%]	HR heart rate, duration of variation (t) ([1]; 0.03 mg/kg p.o.) [min]	HR heart rate, maximum variation from initial value (Δ%) ([1]; 0.03 mg/kg p.o.) [%]	dp/dt rate of increase in left ventricular pressure, maximum variation from initial value (Δ%) ([1]; 0.03 mg/kg p.o.) [%]	dp/dt, duration of variation (t) ([1]; 0.03 mg/kg p.o.) [min]
100	9.5		CNS(=O)(=O)CC(=O)C1=C(C)NC(C)=C(C(=O)OCC(F)(F)F)C1c1cccc([N+](=O)[O-])c1 (centres unmarked) [C, 1,4-dihydro-2,6-dimethyl-5-[(methylsulfamoyl)acetyl]-4-(3-nitrophenyl)nicotinic acid 2,2,2-trifluoroethyl ester]	> 180	-16	180	88	120	+2%	33	180								
100	0.82		CC1=C(C(=O)CS(=O)(=O)NC(C)C)C(c2cc([N+](=O)[O-])ccc2Cl)C(C(=O)OC(C)C)=C(C)N1 (centres unmarked) [D, 4-(2-chloro-5-nitrophenyl)-1,4-dihydro-5-[(isopropylsulfamoyl)acetyl]-2,6-dimethylnicotinic acid isopropyl ester]									> 60	-9	> 120	68	60	-5	75	90
94	16		CNS(=O)(=O)CC(=O)C1=C(C)NC(C)=C(C(=O)OC(C)C)C1c1cccc([N+](=O)[O-])c1 (centres unmarked) [B, 1,4-dihydro-2,6-dimethyl-5-[(methylsulfamoyl)acetyl]-4-(3-nitrophenyl)nicotinic acid isopropyl ester]									> 90	-8	> 90	120		0	10	> 90
100	6.8	30	CCNS(=O)(=O)CC(=O)C1=C(C)NC(C)=C(C(=O)OC(C)C)C1c1cccc([N+](=O)[O-])c1 (centres unmarked) [A, 5-[(Ethylsulfamoyl)acetyl]-1,4-dihydro-2,6-dimethyl-4-(3-nitrophenyl)nicotinic acid isopropyl ester]									> 60	-13	90	98	60	-11	37	90
99	0.6		CCCOCCOC(=O)C1=C(C)NC(C)=C(C(=O)CS(=O)(=O)NC(C)C)C1c1cccc([N+](=O)[O-])c1 (centres unmarked) [F, 1,4-dihydro-5-[(isopropylsulfamoyl)acetyl]-2,6-dimethyl-4-(3-nitrophenyl)nicotinic acid 2-propoxyethyl ester]									> 60	-11	120	56	16	-5	34	60
100	6.6		CC1=C(C(=O)CS(=O)(=O)NC(C)C)C(c2cc(Cl)ccc2Cl)C(C(=O)OC(C)C)=C(C)N1 (centres unmarked) [E, 4-(2,5-dichlorophenyl)-1,4-dihydro-5-[(isopropylsulfamoyl)acetyl]-2,6-dimethylnicotinic acid isopropyl ester]									> 120	-16	70	104	120	-14	65	90
100			COC(=O)C1=C(C)NC(C)=C(C(=O)OC)C1c1ccccc1[N+](=O)[O-] [nifedipine, reference compound]																
100	7.4		CC1=C(C(=O)CS(=O)(=O)NC(C)C)[C@H](c2cccc([N+](=O)[O-])c2)C(C(=O)O[C@@H](C)c2ccccc2)=C(C)N1 [G, (S)-1,4-dihydro-5-[(isopropylsulfamoyl)acetyl]-2,6-dimethyl-4-(3-nitrophenyl)nicotinic acid (S)-1-phenylethyl ester]									> 120	-36	> 120	57	> 120	-13	29	> 120
